Results: paper PMC8399565, “Fluorescence Cross-Correlation Spectroscopy Yields True Affinity and Binding Kinetics of Plasmodium Lactate Transport Inhibitors” (Pharmaceuticals, 2021)
pEC50, pIC50, pKi: −log10 of the molar value. “Also recorded” adds a separate entry of the source.

Assays:
PfFNT-GFP = target: T1, PfFNT-GFP (Plasmodium falciparum, UniProt O77389); assay: FCCS loss of signal screening competition assay; type: binding
T1 construct: The DNA of full-length PfFNT from Plasmodium falciparum 3D7 was cloned as a C-terminal GFP fusion; expressed in transfected cells; intact cells for imaging, LMNG-solubilized membranes or lysates for FCCS
T1 sequence (O77389 whole entry, the tested form may be a part): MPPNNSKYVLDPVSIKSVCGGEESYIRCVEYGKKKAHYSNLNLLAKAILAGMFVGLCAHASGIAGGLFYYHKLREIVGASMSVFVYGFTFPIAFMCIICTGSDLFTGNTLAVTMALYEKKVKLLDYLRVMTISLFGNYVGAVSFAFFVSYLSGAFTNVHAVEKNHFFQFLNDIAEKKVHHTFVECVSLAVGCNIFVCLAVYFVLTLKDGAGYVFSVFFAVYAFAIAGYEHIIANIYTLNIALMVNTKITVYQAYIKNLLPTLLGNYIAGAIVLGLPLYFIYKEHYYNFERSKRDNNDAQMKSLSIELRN
Description: With a loss of signal screening assay using the GFP fusion of PfFNT wildtype and BH296-DY647 as the interaction pair, we set out to test the FCCS approach on a selection of 26 compounds that were validated before using functional lactate transport assays in yeast. In more detail, HEK cell lysates were adjusted to a PfFNT-GFP concentration of 4 nM and mixed with fluorescence-labeled BH296-DY647 at a final concentration of 80 nM, approximating the previously determined KD-value of this interaction. A total of 20 µL of the mix was then dispensed into the wells of a glass-bottom 384 microtiter plate. […] The wells were then analyzed by FCCS, Ki values were determined, and compared by a scatter plot to the IC50 values from the previous functional assays in yeast (Figure 6). […]
FCCS measurements were conducted in 384-well glass-bottom plates (cat. no PS96B-G175, SWISSCI, Switzerland) using an Insight plate reader (Evotec Technologies, Germany) fitted with a U-Apo300 40x water immersion lens, NA 1.15 (Olympus, Japan). […] Fluorescence fluctuations were recorded for 8 s with 12 repetitions and analyzed afterward using FCS+plus Analyze 1.1P (Evotec technologies, Version 1.2.5g). […] All KD and IC50 values, as well as kinetic parameters, were determined from three independently repeated experiments. […]

PfFNT = conditions: cited from earlier work; for pIC50: PfFNT expressed in Saccharomyces cerevisiae yeast
[1] = test system: Plasmodium falciparum 3D7 parasites; set-up: method as in PMID 23798988; conditions: in vitro; cited from earlier work
PfFNT G107S = test system: PfFNT G107S; set-up: method as in PMID 23798988; conditions: PfFNT G107S point mutation; cited from earlier work
[2] = test system: resistant parasites that carried a single PfFNT G107S point mutation; set-up: method as in PMID 23798988; conditions: cited from earlier work

Row | SMILES | pKi (PfFNT-GFP) | Ki (affinity) from FCCS competition screen (PfFNT-GFP; 4 nM PfFNT-GFP, 80 nM BH296-DY647, 1 h room temperature) | activity in functional yeast lactate transport assay (PfFNT; validated before) | pIC50 (PfFNT) | pEC50 [1] | pIC50 (PfFNT G107S) | pEC50 [2]
1 | O=C(/C=C(\O)C(F)(F)C(F)(F)F)c1ccc(C(=O)/C=C(\O)C(F)(F)C(F)(F)F)cc1 [BH454] | > 7.00 | double-digit nanomolar range | little activity; also recorded: not very effective | – | – | – | –
2 | O=C1CC(O)(C(F)(F)C(F)(F)F)Oc2ccccc21 (stereo not drawn) [MMV000972, reference compound] | – | – | – | 6.77 | 5.77 | – | –
3 | COc1ccc2c(c1)OC(O)(C(F)(F)C(F)(F)F)CC2=O (stereo not drawn) [MMV007839] | – | – | – | 6.77 | 6.85 | 4.68 | 4.46
